Assay results published in ChEMBL document CHEMBL1201862, “PubChem BioAssay data set” (2004).
Activity calls are given as the source filed them.

How the values were obtained:
[1] = target: T1, Short transient receptor potential channel 4 (Mus musculus, UniProt Q9QUQ5); test: mouse TRPC4 channel inhibitors, dose response, cell-based, HEK293 TRPC4/mu-opioid, Fluo-4 calcium (AID 434942); assay type: functional;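 note: potency of inhibitors blocking the TRPC4 calcium response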
T1 sequence (Q9QUQ5 whole entry): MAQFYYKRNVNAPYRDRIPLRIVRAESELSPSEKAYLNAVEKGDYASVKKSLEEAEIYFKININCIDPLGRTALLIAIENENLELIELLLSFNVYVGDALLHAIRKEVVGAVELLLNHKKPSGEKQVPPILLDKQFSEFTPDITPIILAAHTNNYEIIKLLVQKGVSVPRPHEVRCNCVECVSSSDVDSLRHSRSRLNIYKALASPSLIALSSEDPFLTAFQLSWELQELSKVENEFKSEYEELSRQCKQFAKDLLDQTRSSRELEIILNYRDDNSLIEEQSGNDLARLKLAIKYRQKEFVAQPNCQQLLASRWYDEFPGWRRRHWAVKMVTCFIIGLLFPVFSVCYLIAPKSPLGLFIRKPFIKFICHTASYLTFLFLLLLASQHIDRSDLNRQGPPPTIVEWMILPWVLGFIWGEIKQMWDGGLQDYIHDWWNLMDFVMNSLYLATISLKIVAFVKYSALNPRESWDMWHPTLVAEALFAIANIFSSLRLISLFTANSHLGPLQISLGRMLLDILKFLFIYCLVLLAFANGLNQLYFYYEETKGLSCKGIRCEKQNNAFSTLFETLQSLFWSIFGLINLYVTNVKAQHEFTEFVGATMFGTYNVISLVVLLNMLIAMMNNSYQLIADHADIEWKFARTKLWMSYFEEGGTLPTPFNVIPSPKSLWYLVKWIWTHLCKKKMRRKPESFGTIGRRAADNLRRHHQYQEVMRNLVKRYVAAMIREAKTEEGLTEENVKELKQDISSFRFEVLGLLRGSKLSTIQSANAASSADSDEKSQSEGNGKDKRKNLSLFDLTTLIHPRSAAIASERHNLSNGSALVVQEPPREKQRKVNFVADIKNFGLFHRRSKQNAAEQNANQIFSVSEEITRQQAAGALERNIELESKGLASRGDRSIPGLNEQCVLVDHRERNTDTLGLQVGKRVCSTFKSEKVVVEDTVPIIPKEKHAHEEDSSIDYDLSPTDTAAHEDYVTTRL

[2] = system: HeLa; test: HeLa cell cytotoxicity, dose response, cytotoxicity control for MITF activator project, CellTiter-Glo luminescence, cherry-pick samples (AID 540259); assay type: functional, cell-based; conditions: Homo sapiens
[3] = target: T1, Short transient receptor potential channel 4; test: mouse TRPC4 channel activators, dose response, cell-based, HEK293 TRPC4/mu-opioid, Fluo-4 calcium (AID 434937); assay type: functional
[4] = system: P388/ADR; test: cells; assay type: functional; conditions: Mus musculus
[5] = system: SN12K1; test: cells; assay type: functional; conditions: Homo sapiens
[6] = system: P388; test: cells; assay type: functional; conditions: Mus musculus
[7] = target: Paired box protein Pax-8 (Homo sapiens, UniProt Q06710); test: inhibitors of PAX8-driven TPO luciferase reporter, dose response, RMG-I cells, cherry-pick (AID 687027); assay type: functional, cell-based;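 note: luciferase reporter driven by Pax8 target thyroperoxidase promoter measured by SteadyGlo luminescence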
[8] = inhibitors of HIV Env-driven cell fusion, dose response, cherry-pick (AID 652057); assay type: functional, cell-based
[9] = inhibitors of clade B AD8 Env fusion, dose response, cell-based, cherry-pick (AID 652062); assay type: functional;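 note: luciferase signal from cell-cell fusion driven by HIV-1 clade B AD8 Env; potency is for inhibitors of fusion seen as a drop in luminescence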
[10] = target: T2, Microphthalmia-associated transcription factor (Homo sapiens, UniProt O75030); test: TRPM1 promoter luciferase signal decrease, dose response, MITF inhibitor project, cell-based, SK-MEL-5, cherry-picked, set 3 (AID 493073); assay type: functional
T2 sequence (O75030 whole entry): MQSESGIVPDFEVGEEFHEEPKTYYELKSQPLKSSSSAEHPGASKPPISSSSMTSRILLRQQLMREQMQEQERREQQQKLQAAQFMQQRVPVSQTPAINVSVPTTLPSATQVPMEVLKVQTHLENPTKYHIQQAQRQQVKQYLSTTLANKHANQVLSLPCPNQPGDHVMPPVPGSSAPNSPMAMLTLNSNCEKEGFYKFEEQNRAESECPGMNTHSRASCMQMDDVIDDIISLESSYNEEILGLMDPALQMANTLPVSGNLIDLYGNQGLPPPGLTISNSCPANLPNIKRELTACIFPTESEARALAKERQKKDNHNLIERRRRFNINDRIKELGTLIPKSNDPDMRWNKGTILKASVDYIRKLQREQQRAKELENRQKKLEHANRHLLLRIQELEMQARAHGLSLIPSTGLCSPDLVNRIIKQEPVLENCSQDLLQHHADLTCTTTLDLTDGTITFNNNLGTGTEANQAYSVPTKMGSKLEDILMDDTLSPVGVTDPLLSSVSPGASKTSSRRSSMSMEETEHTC

Sequence of Paired box protein Pax-8 (Q06710 whole entry, the tested form may be a part): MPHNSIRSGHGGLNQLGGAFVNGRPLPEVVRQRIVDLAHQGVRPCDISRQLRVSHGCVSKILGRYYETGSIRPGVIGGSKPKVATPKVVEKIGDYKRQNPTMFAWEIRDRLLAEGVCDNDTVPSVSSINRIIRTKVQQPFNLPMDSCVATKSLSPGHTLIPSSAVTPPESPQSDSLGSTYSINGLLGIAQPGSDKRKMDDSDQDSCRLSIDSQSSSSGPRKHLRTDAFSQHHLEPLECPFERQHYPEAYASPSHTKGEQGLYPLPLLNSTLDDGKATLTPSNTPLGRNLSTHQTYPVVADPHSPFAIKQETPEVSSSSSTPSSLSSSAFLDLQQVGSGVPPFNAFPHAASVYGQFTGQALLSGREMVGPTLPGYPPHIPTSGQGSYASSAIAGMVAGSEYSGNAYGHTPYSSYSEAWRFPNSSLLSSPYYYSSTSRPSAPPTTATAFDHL

SMILES	GI50 [4]	GI50 [5]	GI50 [6]	also measured
NC(=O)c1nsc(C(=O)N(Cc2ccc(F)cc2)C(C(=O)NCC2CCCO2)c2ccc(O)cc2)c1N (stereo not drawn)				EC50 [1]: 2.37 µM (active)
OCCNc1nc(NCc2ccccc2)c2ccccc2n1				EC50 [1]: 3.35 µM (active)
O=C(c1ccc(F)cc1)c1ccc(N2CCCCC2)cc1				AC50 [2]: 57.7 µM (active)
Cc1cccc(-n2ncc3c(N4CC(C)CC(C)C4)ncnc32)c1 (stereo not drawn)				AC50 [2]: 163 µM (active)
Cc1ccc(NC(=O)CN2CCCC2c2cccn2C)c(Br)c1 (stereo not drawn)				AC50 [2]: 52.2 µM (active)
COc1ccc(C(CNC(=O)c2cccc(NS(=O)(=O)c3ccc(Br)cc3)c2)N(C)C)cc1 (stereo not drawn)				EC50 [3]: 5.31 µM (active)
Fc1ccc(-n2cc(CNCCc3ccncc3)c(-c3ccccc3Cl)n2)cc1				EC50 [1]: 3.35 µM (active)
CC(C)=CCCC(C)CN1CCC(n2nccc2NC(=O)C2CCCC2)CC1 (stereo not drawn)				EC50 [1]: 5.31 µM (active)
c1ccc2c(c1)NCc1cc3ccccc3nc1O2	74.1 µM (inactive)	> 100 µM (inactive)	> 100 µM (inactive)	
COC1C(O)C(n2ncc3c(SC)nc(SC)nc32)OC1C(O)CO (stereo not drawn)	> 100 µM (inactive)	> 37.2 µM (inactive)	98.2 µM (inactive)	
O=C1NC(=O)C(CCO)(c2ccccc2)C(=O)N1		> 100 µM (inactive)	> 100 µM (inactive)	
CCOC(=O)c1c[nH]c2cc3c(cc2c1=O)CCS3(=O)=O.CCOC(=O)c1c[nH]c2ccc3c(c2c1=O)S(=O)(=O)CC3	> 100 µM (inactive)	> 100 µM (inactive)	> 100 µM (inactive)	
Cc1ccc(C#CS(=O)(=O)C(F)(F)F)cc1	> 100 µM (inactive)	> 100 µM (inactive)	90.6 µM (inactive)	
O=C(O)c1ccc(Nc2c3ccccc3nc3ccccc23)cc1	22.4 µM (inactive)	60.5 µM (inactive)	3.92 µM (inactive)	
COC(=O)[C@]12CCCCC=C1N(Cc1cccc3ccccc13)C(=O)[C@H](CC(=O)N1CCN(C(=O)c3ccco3)CC1)C2				AC50 [7]: 1.59 µM (active)
Cc1ccc(S(=O)(=O)N(C)C[C@@H]2Oc3ccc(NC(=O)Cc4cn(C)c5ccccc45)cc3CC(=O)N([C@H](C)CO)C[C@@H]2C)cc1				AC50 [8]: 1.09 µM (active); AC50 [9]: 14.5 µM (active)
Oc1c(Br)cc(Br)cc1/C=N/c1ccc2[nH]ncc2c1				EC50 [1]: 4.22 µM (active)
COc1ccc(C)cc1Nc1nc(N)c2cc(OC)c(OC)cc2n1				AC50 [10]: 14.2 µM (active)
O=P1(N(CCCl)CCCl)NCCCO1 (stereo not drawn) [CYCLOPHOSPHAMIDE ANHYDROUS]	196 µM (inactive)	> 245 µM (inactive)	229 µM (inactive)	
